Converted amounts (≈) assume the structure as drawn. Structures can show the parent of a compound that is named as a salt.
Key:
[1] = tested on: platelet-rich human plasma; platelet aggregation induced by ADP; assay: Platelet aggregation (platelet-rich human plasma) induced in vitro by ADP; type: cell-based; conditions: platelet-rich human plasma, 300,000 platelets/cm^2, 2.0 μg/ml of ADP; read-out: IC50, inductor: ADP
Protocol: (§1) Study of the Effects on the Platelet Aggregation (Platelet-Rich Human Plasma) Induced in Vitro By: ADP, Collagen or Arachidonic Acid Blood samples from volunteer donors are treated and adjusted to a platelet concentration of 300,000/cm^2 and then incubated with different concentrations of the test products. Aggregation is induced by 2.0 μg/ml of ADP or by 10.0 μg/ml of collagen. The measurements are made using a Bryston-type aggregometer--or CHRONOLOG. The changes in optical density are noted and the values of the concentrations which cause a 50% inhibition are calculated.

[2] = tested on: platelet-rich human plasma; platelet aggregation induced by collagen; assay: Platelet aggregation (platelet-rich human plasma) induced in vitro by collagen; type: cell-based; conditions: platelet-rich human plasma, 300,000 platelets/cm^2, 10.0 μg/ml of collagen; read-out: IC50, inductor: collagen
Protocol: as §1

[3] = tested on: isolated guinea-pig intestine; assay: Antagonistic effects on isolated guinea-pig intestine (MAGNUS); conditions: 0.1 μg/ml
platelet aggregation = assay: In vitro inhibition of platelet aggregation (BORN's method), induced by collagen or ADP; type: cell-based, animal and human; conditions: 100 μg/ml, aspirin as reference
Protocol: In vitro inhibition of platelet aggregation The inhibition of platelet aggregation is measured in vitro by BORN's method (Nature 4832, 927 (1962)), the aggregation being induced by collagen or ADP. […] The aggregation can also be induced in vitro by serotonin, arachidonic acid and norepinephrine. Furthermore, this inhibitory effect was observed on platelet-rich plasma (PRP) of animal origin and human origin.

Row | SMILES | IC50 [1] [µg/mL] | IC50 [2] [µg/mL] | inhibitory effect on isolated guinea-pig intestine [3] | inhibition of platelet aggregation compared with aspirin (platelet aggregation)
1 | CC(C)(C)ON=C1CC(=NOC(C)(C)C)c2ccccc2-c2ccccc21 [Example 6, 5,7-Bis(Tert.-Butoxyimino)-6,7-Dihydro-(5H)-Dibenzo[a,c]Cycloheptene] | 460 (≈ 1260 µM) | 600 (≈ 1650 µM) | – | –
2 | c1ccc(CCON=C2CC(=NOCCc3ccccc3)c3ccccc3-c3ccccc32)cc1 [Example 9, 5,7-Bis(2-Phenylethoxyimino)-6,7-Dihydro-(5H)-Dibenzo[a,c]Cycloheptene] | 600 (≈ 1300 µM) | 600 (≈ 1300 µM) | – | –
3 | CC(C)(C)OC(=O)CON=C1CC(=NOCC(=O)OC(C)(C)C)c2ccccc2-c2ccccc21 [Example 11, 5,7-Bis(Tert.-Butoxycarbonylmethoxyimino)-6,7-Dihydro-(5H)-Dibenzo[a,c]Cycloheptene] | 200 (≈ 416 µM) | 320 (≈ 666 µM) | – | –
4 | CCOC(=O)CCCON=C1CC(=NOCCCC(=O)OCC)c2ccccc2-c2ccccc21 [Example 12, 5,7-Bis(Ethoxycarbonylpropoxyimino)-6,7-Dihydro-(5H)-Dibenzo[a,c]Cycloheptene] | 450 (≈ 936 µM) | 670 (≈ 1390 µM) | – | –
5 | CCN(CC)CCON=C1c2ccccc2C(=NOCCN(CC)CC)C1c1ccccc1 (stereo not shown) [Example 21, 1,3-Bis(2-Diethylaminoethoxyimino)-2-Phenyl-(1H)-Indene-(2H) Dihydrochloride] | 24 | 40 | – | comparable or even superior to aspirin
6 | CCN(CC)CCON=C1CC(=NOCCN(CC)CC)c2ccccc21 [Example 22, 1,3-Bis(2-Diethylaminoethoxyimino)-(1H)-Indene-(1H) Dihydrochloride] | 160 | 145 | still substantial | –
7 | c1ccc2c(c1)C(=NOCCN1CCOCC1)CC2=NOCCN1CCOCC1 [Example 23, 1,3-Bis(2-Morpholinoethoxyimino)-(1H)-Indene-(2H) Dihydrochloride] | 420 | 350 | – | –
8 | c1ccc(C2C(=NOCCN3CCOCC3)c3ccccc3C2=NOCCN2CCOCC2)cc1 (stereo not shown) [Example 24, 1,3-Bis(2-Morpholinoethoxyimino)-2-Phenyl-(1H)-Indene-(2H) Dihydrochloride] | 210 | 340 | – | comparable or even superior to aspirin
9 | c1ccc(C2C(=NOCCN3CCCCC3)c3ccccc3C2=NOCCN2CCCCC2)cc1 (stereo not shown) [Example 25, 1,3-Bis(2-Piperidin-1-ylethoxyimino)-2-Phenyl-(1H)-Indene-(2H) Dihydrochloride] | 20 | 38 | – | comparable or even superior to aspirin
10 | COc1ccc(C2C(=NOCCN3CCCCC3)c3ccccc3C2=NOCCN2CCCCC2)cc1 (stereo not shown) [Example 26, 1,3-Bis(2-Piperidin-1-ylethoxyimino-2-(4-Methoxyphenyl-(1H)-Indene-(2H) Dihydrochloride] | 18 | 24 | – | comparable or even superior to aspirin
11 | CCN(CC)CCON=C1c2ccccc2C(=NOCCN(CC)CC)C1c1ccc(Cl)cc1 (stereo not shown) [Example 27, 1,3-Bis(2-Diethylaminoethoxyimino)-2-(4-Chlorophenyl)-(1H)-Indene-(2H) Dihydrochloride] | 28 | 40 | – | comparable or even superior to aspirin
12 | CCN(CC)CCON=C1c2ccccc2C(=NOCCN(CC)CC)C1c1ccc(C)cc1 (stereo not shown) [Example 28, 1,3-Bis(2-Diethylaminoethoxyimino)-2-(4-Methylphenyl)-(1H)-Indene-(2H) Dihydrochloride] | 40 | 62 | – | comparable or even superior to aspirin
13 | CCN(CC)CCON=C1c2ccccc2C(=NOCCN(CC)CC)C1c1ccc2c(c1)OCO2 (stereo not shown) [Example 29, 1,3-Bis(2-Diethylaminoethoxyimino)-2-(3,4-Methylenedioxyphenyl)-(1H)-Indene-(2H) Dihydochloride] | 100 (≈ 202 µM) | 110 (≈ 222 µM) | – | comparable or even superior to aspirin
14 | CCOC(=O)CON=C1c2ccccc2C(=NOCC(=O)OCC)C1c1ccccc1 (stereo not shown) [Example 30, 1,3-Bis(Ethoxycarbonylmethoxyimino)-2-Phenyl-(1H)-Indene-(2H)] | 210 (≈ 495 µM) | 150 (≈ 353 µM) | – | comparable or even superior to aspirin
15 | O=C(O)CON=C1c2ccccc2C(=NOCC(=O)O)C1c1ccccc1 (stereo not shown) [Example 31, 1,3-Bis(Hydroxycarbonylmethoxyimino)-2-Phenyl-(1H)-Indene-(2H)] | – | 250 (≈ 679 µM) | – | –
16 | CCN(CC)CCON=C1c2ccccc2-c2ccccc2C(=NOCCN(CC)CC)C1c1ccccc1.Cl.Cl (stereo not shown) [Example 32, 5,7-Bis(2-Diethylaminoethoxyimino)-6-Phenyl-6,7-Dihydro-(5H)-Dibenzo[a,c]Cycloheptene Dihydrochloride] | 18 | 20 | – | comparable or even superior to aspirin
17 | CCN(CC)CCON=C1c2ccccc2-c2ccccc2C(=NOCCN(CC)CC)C1c1ccc(F)cc1.Cl.Cl (stereo not shown) [Example 33, 5,7-Bis(2-Diethylaminoethoxyimino)-6-(4-Fluorophenyl)-6,7-Dihydro-(5H)-Dibenzo[a,c]Cycloheptene Dihydrochloride] | 22 | 12 | – | comparable or even superior to aspirin
18 | CCN(CC)CCON=C1c2ccccc2-c2ccccc2C(=NOCCN(CC)CC)C1c1ccc(Cl)cc1.Cl.Cl (stereo not shown) [Example 34, 5,7-Bis(2-Diethylaminoethoxyimino)-6-(4-Chlorophenyl)-6,7-Dihydro-(5H)-Dibenzo[a,c]Cycloheptene Dihydrochloride] | 24 | 40 | – | comparable or even superior to aspirin
19 | CCN(CC)CCON=C1c2ccccc2-c2ccccc2C(=NOCCN(CC)CC)C1c1ccc(OC)cc1.Cl.Cl (stereo not shown) [Example 35, 5,7-Bis(Diethylaminoethoxyimino)-6-(4-Methoxyphenyl)-6,7-Dihydro-(5H)-Dibenzo[a,c]Cycloheptene Dihydrochloride] | 16 | 25 | – | comparable or even superior to aspirin

Now from value to molecule, other results behind:

Row | IC50 [1] [µg/mL] | IC50 [2] [µg/mL] | SMILES | inhibitory effect on isolated guinea-pig intestine [3] | inhibition of platelet aggregation compared with aspirin (platelet aggregation)
20 | 650 (≈ 1960 µM) | 800 (≈ 2410 µM) | C=CCON=C1CC(=NOCC=C)c2ccccc2-c2ccccc21 [Example 1, 5,7 -Bis(Allyloxyimino)-6,7-Dihydro-(5H)-Dibenzo[a,c]Cycloheptene] | – | –
21 | – | 800 (≈ 2850 µM) | CON=C1CC(=NOC)c2ccccc2-c2ccccc21 [Example 2, 5,7-Bis(Methoxyimino)-6,7-Dihydro-(5H)-Dibenzo[a,c]Cycloheptene] | – | –
22 | 620 (≈ 2010 µM) | 500 (≈ 1620 µM) | CCON=C1CC(=NOCC)c2ccccc2-c2ccccc21 [Example 3, 5,7-Bis(Ethoxyimino)-6,7-Dihydro-(5H)-Dibenzo[a,c]Cycloheptene] | – | –
23 | 600 (≈ 1780 µM) | 420 (≈ 1250 µM) | CCCON=C1CC(=NOCCC)c2ccccc2-c2ccccc21 [Example 4, 5,7-Bis(n-Propoxyimino)-6,7-Dihydro-(5H)-Dibenzo[a,c]Cycloheptene] | – | –
24 | 420 (≈ 1090 µM) | 650 (≈ 1680 µM) | N#CCCCON=C1CC(=NOCCCC#N)c2ccccc2-c2ccccc21 [Example 5, 5,7-Bis(3-Cyanopropoxyimino)-6,7-Dihydro-(5H)-Dibenzo[a,c]Cycloheptene] | – | –
25 | 600 (≈ 1350 µM) | 600 (≈ 1350 µM) | c1ccc2c(c1)C(=NOCC1CCCCC1)CC(=NOCC1CCCCC1)c1ccccc1-2 [Example 7, 5,7-Bis(Cyclohexylmethoxyimino)-6,7-Dihydro-(5H)-Dibenzo[a,c]Cycloheptene] | – | –
26 | 650 (≈ 1500 µM) | 800 (≈ 1850 µM) | c1ccc(CON=C2CC(=NOCc3ccccc3)c3ccccc3-c3ccccc32)cc1 [Example 8, 5,7-Bis(Benzyloxyimino)-6,7-Dihydro-(5H)-Dibenzo[a,c]Cycloheptene] | – | –
27 | 400 (≈ 942 µM) | 650 (≈ 1530 µM) | CCOC(=O)CON=C1CC(=NOCC(=O)OCC)c2ccccc2-c2ccccc21 [Example 10, 5,7-Bis(Ethoxycarbonylmethoxyimino)-6,7-Dihydro-(5H)-Dibenzo[a,c]Cycloheptene] | – | –
28 | 400 (≈ 1090 µM) | 450 (≈ 1220 µM) | O=C(O)CON=C1CC(=NOCC(=O)O)c2ccccc2-c2ccccc21 [Example 13, 5,7-Bis(Hydroxycarbonylmethoxyimino)-6,7-Dihydro-(5H)-Dibenzo[a,c]Cycloheptene] | – | –
29 | 460 | 600 | Cl.Cl.c1cncc(CON=C2CC(=NOCc3cccnc3)c3ccccc3-c3ccccc32)c1 [Example 14, 5,7-Bis(pyridin-3-ylmethoxyimino)-6,7-dihydro-(5H)-dibenzo[a,c]cycloheptene dihydrochloride] | still substantial | –
30 | 80 | 120 | Cl.Cl.c1ccc2c(c1)C(=NOCCN1CCCCC1)CC(=NOCCN1CCCCC1)c1ccccc1-2 [Example 20, 5,7-Bis(Piperidin-1-ylethoxyimino)-6,7-Dihydro-(5H)-Dibenzo[a,c]Cycloheptene Dihydrochloride] | – | comparable or even superior to aspirin

From patent US4804684A, “Symmetrical O-substituted dioximes of benzo-fused β-diketocyclo-alkylenes, the processes for their preparation and their application as drugs” (Panmedica S.A., priority 1986, dated 1989)
